Some test systems named below: CCRF-CEM leukemia; HL-60(TB) leukemia; HOP-92 NSCLC; LOX IMVI melanoma; MOLT-4 leukemia; NCI-H226 lung; NCI-H522 lung; SK-MEL-2 melanoma; SK-MEL-28 melanoma; SK-OV-3 ovarian.
What all share (assay): inhibition of tumour cell growth, NCI panel, 48 h

From PubChem BioAssay (NCI) come the findings set out here.

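Tested at 5 concentrations; 48 h exposure; 96-well plates; endpoints linearly interpolated, else capped at highest concentration. The concentration for 50% growth inhibition is given as GI50. At the TGI there is no net growth.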

As for `COc1ccc(Cc2coc3ccccc3c2=O)cc1OC`, the TGI with CCRF-CEM leukemia, with HL-60(TB) leukemia, in the assay on HOP-92 NSCLC, with LOX IMVI melanoma, in the assay with MOLT-4 leukemia and with NCI-H226 lung was above 100 µM in each case. Also, the TGI in the assay with NCI-H522 lung, in the assay with SK-MEL-2 melanoma, with SK-MEL-28 melanoma and in the assay on SK-OV-3 ovarian was above 100 µM throughout.

With `CC1(C)CNc2cc(NC(=O)c3cccnc3NCc3ccncc3)ccc21`, the GI50 in the assay with CCRF-CEM leukemia is 23.7 µM; in the assay with HL-60(TB) leukemia, 28 µM; with HOP-92 NSCLC it was 19.4 µM; in the assay on LOX IMVI melanoma, 23.3 µM; with MOLT-4 leukemia, 23.8 µM; in the assay with NCI-H226 lung, 11 µM. Further, the GI50 in the assay with NCI-H522 lung was 25.7 µM; in the assay with SK-MEL-2 melanoma it was 17.2 µM; in the assay on SK-MEL-28 melanoma, 22.1 µM; with SK-OV-3 ovarian, 26.5 µM. Moreover, the TGI is above 100 µM with CCRF-CEM leukemia; 81.5 µM with HL-60(TB) leukemia; 80.6 µM in the assay on HOP-92 NSCLC; above 100 µM in the assay with LOX IMVI melanoma; above 100 µM in the assay with MOLT-4 leukemia; 46.1 µM in the assay on NCI-H226 lung. Further, the TGI in the assay on NCI-H522 lung was above 95.4 µM; in the assay with SK-MEL-2 melanoma, 47.8 µM; in the assay with SK-MEL-28 melanoma, above 100 µM; in the assay with SK-OV-3 ovarian it was above 100 µM.

`O=S(=O)(O)c1cc(O)c(N=Nc2ccc(O)cc2O)c2ccccc12`: the TGI is above 100 µM with CCRF-CEM leukemia; above 100 µM with HL-60(TB) leukemia; above 100 µM with HOP-92 NSCLC; above 100 µM in the assay with LOX IMVI melanoma; above 100 µM in the assay on MOLT-4 leukemia; 48.5 µM in the assay on NCI-H226 lung. In addition, the TGI in the assay on NCI-H522 lung is 95.4 µM; in the assay with SK-MEL-2 melanoma, above 100 µM; in the assay with SK-MEL-28 melanoma, above 100 µM; in the assay on SK-OV-3 ovarian, above 100 µM.

Take `CC1=C(C(=O)Nc2ccccc2)C(c2cccc3ccccc23)C(C(=O)Nc2ccccc2)=C(C)N1`: the TGI with CCRF-CEM leukemia is 59.6 µM; with HL-60(TB) leukemia, 40 µM; in the assay with HOP-92 NSCLC, 58.8 µM; with LOX IMVI melanoma, 30.4 µM; in the assay on MOLT-4 leukemia, 43.8 µM; with NCI-H226 lung, 16 µM. The TGI in the assay with NCI-H522 lung was 35.6 µM; with SK-MEL-2 melanoma, 34.7 µM; with SK-MEL-28 melanoma it was 34.7 µM; in the assay with SK-OV-3 ovarian it was 38.5 µM.

As for `Cc1ccc(S(=O)(=O)SC(C)(C)C)cc1`, the TGI in the assay on CCRF-CEM leukemia is 39.2 µM; with HL-60(TB) leukemia it was 40.7 µM; with HOP-92 NSCLC, above 100 µM; in the assay on LOX IMVI melanoma, 60.1 µM; with MOLT-4 leukemia, 41.5 µM; in the assay on NCI-H226 lung, above 100 µM. Besides, the TGI with NCI-H522 lung is 32.3 µM; in the assay on SK-MEL-2 melanoma it was above 88.3 µM; with SK-MEL-28 melanoma, above 100 µM; with SK-OV-3 ovarian it was above 100 µM.

Take `Cc1cccc(C2SCc3nc4ccccc4n32)c1` (stereo not given): the TGI was above 100 µM in the assay with CCRF-CEM leukemia; 33.5 µM in the assay with HL-60(TB) leukemia; 47.9 µM with HOP-92 NSCLC; above 100 µM in the assay on LOX IMVI melanoma; above 100 µM in the assay with MOLT-4 leukemia; 60.9 µM in the assay with NCI-H226 lung. For the same compound, the TGI is 60.7 µM in the assay on NCI-H522 lung, 52.6 µM with SK-MEL-2 melanoma, 65.7 µM in the assay with SK-MEL-28 melanoma and 72.9 µM in the assay on SK-OV-3 ovarian.

`COCc1c(-c2cc3cc(C)cc(OC)c3s2)c2c(N)ncnn2c1CN1CCNC(=O)C1`: the GI50 in the assay with CCRF-CEM leukemia was 3.42 µM; in the assay on HL-60(TB) leukemia, 8.71 µM; in the assay on HOP-92 NSCLC it was 1.29 µM; in the assay on LOX IMVI melanoma, 3.05 µM; with MOLT-4 leukemia, 3.22 µM; with NCI-H226 lung, 0.291 µM. For the same compound, the GI50 with NCI-H522 lung was 3.78 µM; with SK-MEL-2 melanoma it was 2.83 µM; in the assay with SK-MEL-28 melanoma, 9.38 µM; in the assay on SK-OV-3 ovarian, 2.62 µM. For the same compound, the TGI in the assay with CCRF-CEM leukemia came to 53.8 µM; in the assay with HL-60(TB) leukemia it was 32.7 µM; in the assay on HOP-92 NSCLC, 5.92 µM; in the assay on LOX IMVI melanoma, 13.5 µM; with MOLT-4 leukemia, 48.5 µM; in the assay on NCI-H226 lung, 5.41 µM. Besides, the TGI with NCI-H522 lung worked out at 25.3 µM; in the assay on SK-MEL-2 melanoma, 8.61 µM; with SK-MEL-28 melanoma, 70.3 µM; in the assay with SK-OV-3 ovarian it was 7.72 µM.

Take `CCOC(=O)/C(=C/c1ccc(C(=O)OC)cc1)N(CC)CC`: the TGI was 93.7 µM with CCRF-CEM leukemia; 69.4 µM in the assay with HL-60(TB) leukemia; above 100 µM in the assay on HOP-92 NSCLC; above 100 µM with LOX IMVI melanoma; above 100 µM in the assay with MOLT-4 leukemia; 79 µM in the assay with NCI-H226 lung. The TGI in the assay on NCI-H522 lung, with SK-MEL-2 melanoma, with SK-MEL-28 melanoma and in the assay on SK-OV-3 ovarian was above 100 µM in each case.

Turning to `CC1/C(=N\O)CC(c2ccccc2)N(C)C1c1ccccc1` (stereo not given), the TGI with CCRF-CEM leukemia, in the assay with HL-60(TB) leukemia, in the assay on HOP-92 NSCLC, with LOX IMVI melanoma, with MOLT-4 leukemia and in the assay with NCI-H226 lung was above 100 µM in each case. In addition, the TGI in the assay with NCI-H522 lung, with SK-MEL-2 melanoma, in the assay on SK-MEL-28 melanoma and in the assay with SK-OV-3 ovarian was above 100 µM throughout.

With `COc1ccc2c(c1OC)CO[C@@H]2[C@H]1c2c(cc3c(c2OC)OCO3)CCN1S(=O)(=O)c1cn(C)cn1`, the GI50 in the assay with CCRF-CEM leukemia was 0.944 µM; in the assay with HL-60(TB) leukemia, 1.66 µM; in the assay on HOP-92 NSCLC it was 0.783 µM; in the assay with LOX IMVI melanoma it was 4.48 µM; in the assay on MOLT-4 leukemia it was 3.84 µM; in the assay on NCI-H226 lung, 0.462 µM. The GI50 in the assay on NCI-H522 lung was 0.427 µM; with SK-MEL-2 melanoma, 2.17 µM; with SK-MEL-28 melanoma, 5.4 µM; with SK-OV-3 ovarian, 2.57 µM. Besides, the TGI in the assay with CCRF-CEM leukemia is above 100 µM; in the assay with HL-60(TB) leukemia it was 4.9 µM; with HOP-92 NSCLC, 87.4 µM; in the assay with LOX IMVI melanoma, above 100 µM; in the assay with MOLT-4 leukemia it was above 100 µM; with NCI-H226 lung it was 4.48 µM. For the same compound, the TGI in the assay with NCI-H522 lung was 8.32 µM; in the assay with SK-MEL-2 melanoma it was above 100 µM; in the assay with SK-MEL-28 melanoma, above 100 µM; in the assay on SK-OV-3 ovarian, above 100 µM.
